Measured values as given in patent US8492561B2, “Azetidine derivatives as sphingosine 1-phosphate (S1P) receptor modulators” (Allergan, Inc., priority 2010, dated 2013).

Target: T1, human S1P1 receptor (Homo sapiens, UniProt P21453)
T1 construct: expressed in transfected cells; membranes from cells stably expressing the S1P1 receptor
Experiment: GTP γ35S binding assay for S1P1 activity
Assay type: biochemical
Details: membranes of cells stably expressing the S1P1 receptor, agonist potency
Protocol: Compounds were synthesized and tested for S1P1 activity using the GTP γ^35S binding assay. These compounds may be assessed for their ability to activate or block activation of the human S1P1 receptor in cells stably expressing the S1P1 receptor.
GTP γ^35S binding was measured in the medium containing (mM) HEPES 25, pH 7.4, MgCl2 10, NaCl 100, dithiothreitol 0.5, digitonin 0.003%, 0.2 nM GTP γ^35S, and 5 μg membrane protein in a volume of 150 μl. Test compounds were included in the concentration range from 0.08 to 5,000 nM unless indicated otherwise. Membranes were incubated with 100 μM 5′-adenylylimmidodiphosphate for 30 min, and subsequently with 10 μM GDP for 10 min on ice. Drug solutions and membrane were mixed, and then reactions were initiated by adding GTP γ^35S and continued for 30 min at 25° C. Reaction mixtures were filtered over Whatman GF/B filters under vacuum, and washed three times with 3 mL of ice-cold buffer (HEPES 25, pH7.4, MgCl2 10 and NaCl 100). Filters were dried and mixed with scintillant, and counted for ^35S activity using a β-counter. Agonist-induced GTP γ^35S binding was obtained by subtracting that in the absence of agonist. Binding data were analyzed using a non-linear regression method. In case of antagonist assay, the reaction mixture contained 10 nM S1P in the presence of test antagonist at concentrations ranging from 0.08 to 5000 nM.

T1 sequence (P21453 whole entry): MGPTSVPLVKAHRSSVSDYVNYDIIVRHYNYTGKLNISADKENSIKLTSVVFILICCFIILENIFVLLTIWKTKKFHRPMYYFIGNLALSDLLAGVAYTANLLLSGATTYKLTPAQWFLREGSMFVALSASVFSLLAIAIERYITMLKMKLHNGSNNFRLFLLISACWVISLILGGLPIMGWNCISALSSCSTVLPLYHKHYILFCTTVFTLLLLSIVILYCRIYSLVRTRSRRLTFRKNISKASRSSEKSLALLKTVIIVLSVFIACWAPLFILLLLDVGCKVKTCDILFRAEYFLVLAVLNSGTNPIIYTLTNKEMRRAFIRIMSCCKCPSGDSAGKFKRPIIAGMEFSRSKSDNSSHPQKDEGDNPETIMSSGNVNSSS

EC50 [nM]	SMILES
16	Cc1ccc(CC(C#Cc2ccc(CN3CC(C(=O)O)C3)cc2)c2cccc(Cl)c2)cc1C (stereo not shown) [Compound 1, 1-{4-[3-(3-chlorophenyl)-4-(3,4-dimethylphenyl)but-1-yn-1 yl]benzyl}azetidine-3-carboxylic acid]
607	Cc1ccc(CC(C#Cc2ccc(CN3CC(C(=O)O)C3)cc2C)c2cccc(Cl)c2)cc1C (stereo not shown) [Compound 2, 1-{4-[3-(3-Chloro-phenyl)-4-(3,4-dimethyl-phenyl)-but-1-ynyl]-3-methyl-benzyl}-azetidine-3-carboxylic acid]
42.3	COc1cccc(C(C#Cc2ccc(CN3CC(C(=O)O)C3)cc2)Cc2ccc(C)c(C)c2)c1 (stereo not shown) [Compound 3, 1-{4-[4-(3,4-dimethylphenyl)-3-(3-methoxyphenyl)but-1-yn-1-yl]benzyl}azetidine-3-carboxylic acid]
128	Cc1ccc(CC(C#Cc2ccc(CN3CC(C(=O)O)C3)cc2)c2ccc(Cl)cc2)cc1C (stereo not shown) [Compound 4, 1-{4-[3-(4-chlorophenyl)-4-(3,4-dimethylphenyl)but-1-yn-1-yl]benzyl}azetidine-3-carboxylic acid]
310	O=C(O)C1CN(Cc2ccc(C#CC(Cc3ccc(Cl)c(Cl)c3)c3cccc(F)c3)cc2)C1 (stereo not shown) [Compound 5, 1-{4-[4-(3,4-Dichloro-phenyl)-3-(3-fluoro-phenyl)-but-1-ynyl]-benzyl}-azetidine-3-carboxylic acid]
58.7	Cc1ccc(CC(/C=C/c2ccc(CN3CC(C(=O)O)C3)cc2)c2cccc(F)c2)cc1C (stereo not shown) [Compound 6, 1-{4-[(1E)-4-(3,4-dimethylphenyl)-3-(3-fluorophenyl)but-1-en-1-yl]benzyl}azetidine-3-carboxylic acid]
91.9	Cc1cccc(C(C#Cc2ccc(CN3CC(C(=O)O)C3)cc2)Cc2ccc(C)c(C)c2)c1 (stereo not shown) [Compound 7, 1-{4-[4-(3,4-dimethylphenyl)-3-(3-methylphenyl)but-1-yn-1-yl]benzyl}azetidine-3-carboxylic acid]
